According to PMC4535766, “Antiprotozoal Activity Profiling of Approved Drugs: A Starting Point toward Drug Repositioning” (PLoS ONE, 2015):
Read-outs that look alike come from different tables or passages of the source.

Tests used:
[1] = system: intracellular amastigotes of L. donovani strain MHOM-ET-67/L82; test: Activity against Leishmania donovani intracellular amastigotes in mouse peritoneal macrophages; conditions: Leishmania donovani, Peritoneal macrophage, in Mus musculus
Protocol: After 24 h 1.2 x 10^5 amastigote L. donovani in 100 μl were added. The amastigotes were taken from an axenic culture grown at pH 5.4. Four hours later, the medium containing free amastigote forms was removed and replaced by fresh medium. The next day the medium was replaced by medium with or without a serial drug dilution of seven 3-fold dilution steps covering a range from 30 to 0.04 μg/ml. Parasite growth in the presence of the drug was compared to control wells. After 96 h of incubation, the medium was removed and the slides fixed with methanol for 10 min followed by staining with a 10% Giemsa solution. Infected and non-infected macrophages were counted for the control cultures and those exposed to the serial drug dilutions. The infection rates were determined. The results were expressed as a percentage reduction in parasite burden compared to control wells, and the IC50 was calculated by linear regression analysis. The collection of mouse peritoneal macrophages was done at the Swiss Tropical and Public Health Institute (Basel) according to the rules and regulations for the protection of animal rights ("Tierschutzverordnung") of the Swiss "Bundesamt für Veterinärwesen".

[2] = system: T. b. rhodesiense strain STIB 900, trypomastigotes; test: In vitro activity against T. b. rhodesiense, serial drug dilution assay; conditions: for IC50: Trypanosoma brucei
Protocol: (§1) Drug stock solutions (10mg/ml) were in DMSO (100%). […] Selectivity index (SI) was calculated as IC50 L6 cells/IC50 parasite.

[3] = system: axenic amastigotes of L. donovani, strain MHOM-ET-67/L82; test: In vitro activity against L. donovani axenic amastigotes, serial drug dilution assay; assay type: cell-based, Leishmania donovani; conditions: Leishmania donovani
Protocol: as §1

[4] = system: T. cruzi, strain Tulahuen C4, intracellular amastigotes; test: microbe, parasite or virus in culture; conditions: for IC50: Trypanosoma cruzi, TULAHUEN
Protocol: as §1

in vitro = conditions: rat
Protocol: as §1

P. falciparum strain K1 = test: In vitro activity against P. falciparum, serial drug dilution assay; conditions: Plasmodium falciparum
Protocol: as §1

[5] = Cytotoxicity on macrophages infected with L. donovani; assay type: cell-based, mouse; conditions: mouse
[6] = 96 h, read-out: IC50 L. don. intracell
[7] = axenic amastigotes, strain MHOM-ET-67/L82, means of two independent assays, read-out: IC50 L. don. axen.
[8] = L6 cells, IC50 Cytotox. L6, L6 cells, means of two independent assays
[9] = mouse peritoneal macrophages infected with L. donovani, macrophages infected with L. donovani, read-out: IC50 Cytotox. mac.inf.
[10] = infected macrophages, read-out: Cytotox. mac.inf. IC50
[11] = macrophages infected with L. donovani, read-out: IC50 Cytotox. mac.inf.

For `CC(=O)N1CCN(c2ccc(OCC3COC(Cn4ccnc4)(c4ccc(Cl)cc4Cl)O3)cc2)CC1` (stereo not drawn) [Ketoconazole], the IC50 [1, 6] was > 18.8 µM, the IC50 ([2]; read-out: IC50 T. b. rhod.) was 33.1 µM and the IC50 [3, 7] was 38.8 µM. For the same compound, the IC50 ([4]; read-out: IC50 T. cruzi) was 0.27 µM and the IC50 (in vitro) was 51 µM.
In the case of `Cc1cn([C@H]2C=C[C@@H](CO)O2)c(=O)[nH]c1=O` [Stavudine], the IC50 [1, 6] is reported as > 134 µM, the IC50 ([2]; read-out: IC50 T. b. rhod.) is reported as 120 µM and the IC50 [3, 7] is reported as > 446 µM. It also gave an IC50 ([4]; read-out: IC50 T. cruzi) of 341 µM, an IC50 (in vitro; [8]) of 266 µM and an IC50 (P. falciparum strain K1; K1, read-out: IC50 P. falc. K1) of 186 µM. For the same compound, the IC50 at 96 h [5, 9] was > 134 µM.
In the case of `CCCSc1ccc2nc(NC(=O)OC)[nH]c2c1` [Albendazole], the IC50 [1, 6] is reported as > 3.77 µM, the IC50 ([2]; read-out: IC50 T. b. rhod.) is reported as 14.7 µM and the IC50 [3, 7] is reported as > 113 µM. For the same compound, the IC50 ([4]; read-out: IC50 T. cruzi) was 12.3 µM and the IC50 (in vitro) was 0.41 µM.
Compound `CSc1ccc2c(c1)N(CCC1CCCCN1C)c1ccccc1S2` (stereo not drawn) [Thioridazine] has an IC50 (in vitro; IC50 Cytotox. L6) of 5.39 µM and an MCC at 96 h [5, 10] of 25.8 µM.
Work on `CC(Cc1cccc(C(F)(F)F)c1)NCCOC(=O)c1ccccc1` (stereo not drawn) [Benfluorex] yielded an IC50 [1, 6] of 54.4 µM, an IC50 ([2]; read-out: IC50 T. b. rhod.) of 21.1 µM and an IC50 [3, 7] of 243 µM. The IC50 ([4]; read-out: IC50 T. cruzi) was 73.7 µM, the IC50 (in vitro; IC50 Cytotox. L6) was 49.1 µM and the IC50 (P. falciparum strain K1; K1, read-out: IC50 P. falc. K1) was 6.52 µM. For the same compound, the IC50 at 96 h [5, 11] was > 85.4 µM.
With `CCC[C@@H]1C[C@@H](C(=O)N[C@@H]([C@H]2O[C@H](SC)[C@H](O)[C@@H](O)[C@H]2O)[C@@H](C)O)N(C)C1` [Lincomycin] the IC50 [1, 6] was > 73.8 µM, the IC50 ([2]; read-out: IC50 T. b. rhod.) was > 221 µM and the IC50 [3, 7] was > 221 µM. The IC50 ([4]; read-out: IC50 T. cruzi) was > 221 µM, the IC50 (in vitro; IC50 Cytotox. L6) was > 221 µM and the IC50 (P. falciparum strain K1; K1, read-out: IC50 P. falc. K1) was 7.08 µM. For the same compound, the IC50 at 96 h [5, 11] was > 73.8 µM.
In the case of `Fc1ccc([C@@H]2CCNC[C@H]2COc2ccc3c(c2)OCO3)cc1` [Paroxetine], the IC50 [1, 6] is reported as > 9.11 µM, the IC50 ([2]; read-out: IC50 T. b. rhod.) is reported as 1.13 µM and the selectivity ratio ([2]; rat) is reported as 12. The IC50 [3, 7] was > 273 µM, the IC50 ([4]; read-out: IC50 T. cruzi) was 14.4 µM and the IC50 (in vitro; IC50 Cytotox. L6) was 13.8 µM. It also gave an IC50 (P. falciparum strain K1; K1, read-out: IC50 P. falc. K1) of 9.23 µM and an MCC at 96 h [5, 11] of 30.4 µM.
For `C#C[C@]1(O)CC[C@H]2[C@@H]3CCC4=Cc5oncc5C[C@]4(C)[C@H]3CC[C@@]21C` [Danazol], the IC50 ([1]; read-out: L. don. intracell IC50) was > 29.6 µM, the IC50 ([2]; read-out: T. b. rhod. IC50) was 45.9 µM and the IC50 ([3]; L. donovani axenic amastigotes, read-out: L. don. axen. IC50) was 10.2 µM. The IC50 ([4]; read-out: T. cruzi IC50) was 6.25 µM, the IC50 (in vitro; Cytotox. L6 IC50) was 32 µM and the IC50 (P. falciparum strain K1; K1, read-out: P. falc. IC50) was 14.1 µM. For the same compound, the IC50 at 96 h [5, 10] was > 29.6 µM.
In the case of `CN(C)CCCN1c2ccccc2CCc2ccc(Cl)cc21` [Clomipramine], the IC50 (in vitro; IC50 Cytotox. L6) is reported as 19.8 µM and the IC50 at 96 h [5, 11] is reported as 31.8 µM.
With `CN1CCN(CCCN2c3ccccc3Sc3ccc(C(F)(F)F)cc32)CC1` [Trifluoperazine] the IC50 [1, 6] was > 7.36 µM, the IC50 ([2]; read-out: IC50 T. b. rhod.) was 1.23 µM and the IC50 [3, 7] was 52.9 µM. It also gave an IC50 ([4]; read-out: IC50 T. cruzi) of 10.1 µM, an IC50 (in vitro; [8]) of 11 µM and an IC50 (P. falciparum strain K1; K1, read-out: IC50 P. falc. K1) of 1.48 µM. For the same compound, the IC50 at 96 h [5, 11] was 24.5 µM.
For `CC(C)CN(C[C@@H](O)[C@H](Cc1ccccc1)NC(=O)O[C@H]1CO[C@H]2OCC[C@H]21)S(=O)(=O)c1ccc(N)cc1` [Darunavir], the IC50 [1, 6] was > 54.8 µM, the IC50 ([2]; read-out: IC50 T. b. rhod.) was 31.4 µM and the IC50 [3, 7] was 125 µM. The IC50 ([4]; read-out: IC50 T. cruzi) was 92.2 µM and the IC50 (P. falciparum strain K1; K1, read-out: IC50 P. falc. K1) was 46.9 µM.
With `CC[C@H]1OC(=O)[C@H](C)[C@@H](O[C@H]2C[C@@](C)(OC)[C@@H](O)[C@H](C)O2)[C@H](C)[C@@H](O[C@@H]2O[C@H](C)C[C@H](N(C)C)[C@H]2O)[C@](C)(O)C[C@@H](C)C(=O)[C@H](C)[C@@H](O)[C@]1(C)O` [Erythromycine (Hydrate), Erythromycine] the IC50 [1, 6] was > 39.9 µM, the IC50 ([2]; read-out: IC50 T. b. rhod.) was 72.1 µM and the IC50 [3, 7] was > 133 µM. It also gave an IC50 ([4]; read-out: IC50 T. cruzi) of 114 µM, an IC50 (in vitro; IC50 Cytotox. L6) of 92.2 µM and an IC50 (P. falciparum strain K1; K1, read-out: IC50 P. falc. K1) of 9.91 µM. The IC50 at 96 h [5, 11] was > 39.9 µM.
With `Cc1nc2ccccn2c(=O)c1CCN1CCC(C(=O)c2ccc(F)cc2)CC1` [Pirenperone] the IC50 [1, 6] was > 76.2 µM, the IC50 ([2]; read-out: IC50 T. b. rhod.) was 30 µM and the IC50 [3, 7] was 162 µM. It also gave an IC50 ([4]; read-out: IC50 T. cruzi) of 128 µM, an IC50 (in vitro; [8]) of 232 µM and an IC50 (P. falciparum strain K1; K1, read-out: IC50 P. falc. K1) of 4.35 µM. For the same compound, the IC50 at 96 h [5, 9] was > 76.2 µM.
Compound `CCCCCCCCCCCCCCCCOP(=O)([O-])OCC[N+](C)(C)C` [Miltefosine] has an IC50 [1, 6] of 1.21 µM.
For `NNC(=O)c1ccncc1` [Isoniazide], the IC50 [1, 6] was > 219 µM, the IC50 ([2]; read-out: IC50 T. b. rhod.) was > 729 µM and the IC50 [3, 7] was > 729 µM. It also gave an IC50 ([4]; read-out: IC50 T. cruzi) of 383 µM, an IC50 (in vitro; IC50 Cytotox. L6) of 602 µM and an IC50 (P. falciparum strain K1; K1, read-out: IC50 P. falc. K1) of 246 µM. The IC50 at 96 h [5, 11] was > 219 µM.
With `CN1CC(=O)N2[C@H](c3ccc4c(c3)OCO4)c3[nH]c4ccccc4c3C[C@@H]2C1=O` [Tadalafil] the IC50 [1, 6] was > 77 µM, the IC50 ([2]; read-out: IC50 T. b. rhod.) was 97.6 µM and the IC50 [3, 7] was 40.1 µM. For the same compound, the IC50 ([4]; read-out: IC50 T. cruzi) was 8.6 µM, the “Selectivity index: IC50 Cytotoxicity L6/ IC50 T. cruzi” value ([4]; rat) was 26 and the selectivity ratio ([4]; rat, Selectivity index: IC50 Cytotoxicity L6/ IC50 T. cruzi) was > 26. For the same compound, the IC50 (in vitro; IC50 Cytotox. L6) was 221 µM, the IC50 (P. falciparum strain K1; K1, read-out: IC50 P. falc. K1) was > 12.8 µM and the IC50 at 96 h [5, 11] was > 77 µM.
